Article PMC6450673, “Targeted degradation of aberrant tau in frontotemporal dementia patient-derived neuronal cell models” (eLife, 2019)
Where “and” joins values, the source holds several entries; their conditions need not be identical. Equal entries are not always repeated.

Tests used:
[1] = target: T1, total tau (TAU5) in non-mutant control iPSC-derived neurons (Homo sapiens, UniProt P10636); test: Human total tau ELISA in control neurons 1-3; format: cell-based; details: 24 hr
T1 construct: modeling pathogenic tau species without the need for overexpression of heterologous genes; endogenous in cells; host or cells: 8330-8-RC1, MGH2069-RC1, CTR2-L17-RC2 human iPSC-derived neurons
Text: (§1) Cells from individuals carrying the tau risk variant A152T (c.1407G > A; NCBI RefSeq NM_001123066, rs143624519), the autosomal dominant mutation P301L (c.C1907T; NCBI NM_001123066, rs63751273), or age-matched non-mutant WT tau were employed in this study (Figure 2—source data 1). Dermal fibroblasts from the tau-P301L carrier and the healthy individual were generated from a skin biopsy from subjects within the MGH Frontotemporal Disorders Unit as part of the MGH Neurodegeneration Repository. Approval for human subjects’ work was obtained under a Partners/MGH-approved IRB Protocol (#2010P001611/MGH). Fibroblasts were reprogrammed into iPSCs, which were subsequently converted into cortical-enriched neural progenitor cells (NPCs) and differentiated into neuronal cells as previously described ([Almeida et al., 2012]; [Seo et al., 2017]; [Silva et al., 2016]; [Sheridan et al., 2011]) (Silva MC, Manuscript in preparation, 2019). Briefly, cells were cultured in 6-well (Fisher Scientific Corning, Pittsburgh, PA) or 96-well (Fisher Scientific Corning) plates coated with poly-ornithine (20 μg/mL in water, Sigma, St. Louis, MO) and laminin (5 μg/mL in PBS, Sigma) (POL-coated), in DMEM/F12-B27 media [70% DMEM (Gibco, Carlsbad, CA), 30% Ham’s-F12 (Fisher Scientific Corning), 2% B27 (Gibco), 1% penicillin-streptomycin (Gibco)]. Media was supplemented with EGF (20 ng/mL, Sigma), FGF (20 ng/mL, Stemgent, Cambridge, MA) and heparin (5 μg/mL, Sigma), to promote NPC proliferation and expansion. The growth factors were withdrawn to promote neural differentiation for 6 to 8 weeks, with half media change two times per week. Cell lines’ identity was authenticated by SANGER sequencing, karyotyping and ACGH analysis at different stages of culture maintenance from iPSC to NPC. All working cell lines tested negative for mycoplasma contamination.
(§2) Compound treatment in six-well plates was performed in 2 mL media volume by removing 1 mL of conditioned media from the culture and adding 1 mL of new media pre-mixed with the compound at the appropriate 2X concentration, followed by incubation at 37°C for the designated period of time. Compound treatment in 96-well plates was performed in 100 μL media volume by adding compound directly to each well, followed by incubation at 37°C. When testing the effect of drug pre-treatment, the first compound was added as described above for the period of time needed, and then QC-01–175 was added directly onto the media without media exchange.
(§3) Neuronal cells differentiated in six-well plate format for 6 weeks, were collected as described for western blotting, and lysed in ELISA-compatible buffer (Invitrogen FNN0011), supplemented with 1 mM PMSF, protease (Roche) and phosphatase (Sigma) inhibitors cocktails, for 30 min on ice with quick vortexing. Lysates were clarified by centrifugation at 13,000 rpm at 4°C for 10 min. The clear lysates were then transferred to new microfuge tubes and total protein concentration was quantified with the Pierce BCA Protein Assay Kit (ThermoFisher Scientific). ELISA assays were performed according to manufacturer instructions: Human Total Tau ELISA (Invitrogen Kit KHB0041/KHB0042) and P-Tau[pS396] Human ELISA Kit (Invitrogen Kit KHB7031). Data was plotted using GraphPad Prism version 8.0.

[2] = target: T2, P-tau S396 in non-mutant control iPSC-derived neurons (Homo sapiens, UniProt P10636); test: P-Tau[pS396] ELISA in control neurons 1-3; format: cell-based; details: for S396 P-Tau (ELISA, relative to vehicle-treated): replicate values; for degradation of P-tau S396: 24 hr
T2 construct: modeling pathogenic tau species without the need for overexpression of heterologous genes; endogenous in cells; host or cells: 8330-8-RC1, MGH2069-RC1, CTR2-L17-RC2 human iPSC-derived neurons
Text: as §1, §2, §3

[3] = test system: P-tau S396 in A152T neurons; test: Western blot of P-tau S396 in A152T neurons; format: cell-based, human; details: for S396 P-Tau (relative to vehicle): 4 h treatment
Text: as §1, §2
Neurons differentiated in six-well plates for 6 weeks were washed and collected in PBS, lysed in RIPA buffer (Boston Bio-Products, Boston, MA) supplemented with 2% SDS (Sigma), protease inhibitors cocktail (Roche Complete Mini tablets, Mannheim, Germany), and phosphatase inhibitors cocktail (Sigma), followed by water sonication (Bransonic Ultrasonic Baths, Thomas Scientific, Danbury, CT) and 20,000 g centrifugation for 20 min. Supernatants were transferred to new tubes and total protein concentration was quantified with the Pierce BCA Protein Assay Kit (ThermoFisher Scientific, Carlsbad, CA). Human recombinant tau protein ladder was purchased from Sigma. Electrophoresis were performed with the Novex NuPAGE SDS-PAGE Gel System (Invitrogen, Carlsbad, CA), by running 10 μg of total protein (pre-boiled in SDS-DTT loading buffer, NEB, Ipswich, MA) on pre-cast SDS-PAGE. Gels were transferred onto PVDF membranes (EMD Millipore) using standard procedures. Membranes were blocked in 5% BSA (Sigma) in Tris-buffered saline with Tween-20 (TBST/Biorad, Hercules, CA) for 2 hr, incubated overnight with primary antibody (see antibody section) at 4°C, followed by corresponding HRP-linked secondary antibody incubation (Cell Signaling Technology, Danvers, MA). […]

T2 sequence (P10636 1-441 isoform P10636-8, stated change not applied): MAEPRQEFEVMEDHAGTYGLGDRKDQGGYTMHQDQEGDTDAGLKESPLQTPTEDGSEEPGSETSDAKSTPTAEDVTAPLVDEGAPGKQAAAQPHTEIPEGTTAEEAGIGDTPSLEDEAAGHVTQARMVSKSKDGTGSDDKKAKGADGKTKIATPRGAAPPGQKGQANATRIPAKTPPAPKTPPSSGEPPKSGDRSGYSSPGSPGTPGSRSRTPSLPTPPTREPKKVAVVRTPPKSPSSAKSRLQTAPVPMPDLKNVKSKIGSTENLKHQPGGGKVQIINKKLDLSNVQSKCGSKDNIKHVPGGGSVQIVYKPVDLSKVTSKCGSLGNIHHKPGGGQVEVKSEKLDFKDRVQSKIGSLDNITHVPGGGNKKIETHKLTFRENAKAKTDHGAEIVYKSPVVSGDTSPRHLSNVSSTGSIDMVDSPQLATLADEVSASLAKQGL
T1 sequence (P10636 1-441 isoform P10636-8, stated change not applied): as above

**Q.** How did the “degradation of total tau” value ([1]; control line 3, 10 μM) turn out when `O=C(CCc1ccc2c(c1)[nH]c1ccncc12)NCCOCCOCCNc1cccc2c1C(=O)N(C1CCC(=O)NC1=O)C2=O` (stereo not drawn) [QC-01–175] was run?
**A.** no effect

**Q.** What about the “dose dependence of effect on tau, ELISA” value ([1]; control neurons (8330–8-RC1, MGH2069-RC1, CTR2-L17-RC2)) of the same compound?
**A.** did not show a dose-dependent effect

**Q.** And the “S396 P-Tau (ELISA, relative to vehicle-treated)” value ([2]; Control 1, 8330-8-RC1, 24h, 0.001 μM)?
**A.** 0.90 and 1.07 and 1.00 (2×)

**Q.** What about the “S396 P-Tau (ELISA, relative to vehicle-treated)” value ([2]; Control 1, 8330-8-RC1, 24h, 0.01 μM) of the same compound?
**A.** 0.97 (2×) and 0.67 and 0.90

**Q.** And the “S396 P-Tau (ELISA, relative to vehicle-treated)” value ([2]; Control 1, 8330-8-RC1, 24h, 0.1 μM)?
**A.** 0.71 and 0.84 and 1.21 and 0.90

**Q.** What about the “S396 P-Tau (ELISA, relative to vehicle-treated)” value ([2]; Control 1, 8330-8-RC1, 24h, 1 μM) of the same compound?
**A.** 0.85 and 1.01 and 0.80 and 0.95

**Q.** What about the “S396 P-Tau (ELISA, relative to vehicle-treated)” value ([2]; Control 1, 8330-8-RC1, 24h, 10 μM) of the same compound?
**A.** 0.55 and 0.65 and 0.77 and 0.86

**Q.** And the “S396 P-Tau (ELISA, relative to vehicle-treated)” value ([2]; Control 2, MGH2069-RC1, 24h, 0.001 μM)?
**A.** 0.71 and 0.83 and 1.11 and 0.91

**Q.** And the “S396 P-Tau (ELISA, relative to vehicle-treated)” value ([2]; Control 2, MGH2069-RC1, 24h, 0.01 μM)?
**A.** 0.89 and 1.05 and 1.10 and 0.99

**Q.** What about the “S396 P-Tau (ELISA, relative to vehicle-treated)” value ([2]; Control 2, MGH2069-RC1, 24h, 0.1 μM) of the same compound?
**A.** 0.85 and 1.00 and 0.99 and 1.30

**Q.** What about the “S396 P-Tau (ELISA, relative to vehicle-treated)” value ([2]; Control 2, MGH2069-RC1, 24h, 1 μM) of the same compound?
**A.** 1.14 (2×) and 1.04 and 0.97

**Q.** What about the “S396 P-Tau (ELISA, relative to vehicle-treated)” value ([2]; Control 2, MGH2069-RC1, 24h, 10 μM) of the same compound?
**A.** 0.95 and 1.12 and 0.78 and 0.91

**Q.** And the “S396 P-Tau (ELISA, relative to vehicle-treated)” value ([2]; Control 3, CTR2-L17-RC2, 24h, 0.001 μM)?
**A.** 0.94 and 0.77 and 0.84 and 1.00

**Q.** And the “S396 P-Tau (ELISA, relative to vehicle-treated)” value ([2]; Control 3, CTR2-L17-RC2, 24h, 0.01 μM)?
**A.** 1.06 and 1.13 and 1.00 and 0.97

**Q.** What about the “S396 P-Tau (ELISA, relative to vehicle-treated)” value ([2]; Control 3, CTR2-L17-RC2, 24h, 0.1 μM) of the same compound?
**A.** 0.95 and 0.78 and 1.00 and 0.90

**Q.** What about the “S396 P-Tau (ELISA, relative to vehicle-treated)” value ([2]; Control 3, CTR2-L17-RC2, 24h, 1 μM) of the same compound?
**A.** 1.03 and 0.85 and 0.87 and 0.72

**Q.** What about the “S396 P-Tau (ELISA, relative to vehicle-treated)” value ([2]; Control 3, CTR2-L17-RC2, 24h, 10 μM) of the same compound?
**A.** 0.70 and 0.95 and 0.89 and 0.74

**Q.** And the “degradation of P-tau S396” value ([2]; all three control neurons, ELISA, concentrations up to 1 μM)?
**A.** No significant degradation

**Q.** What about the “degradation of P-tau S396” value ([2]; control line 1, 10 μM) of the same compound?
**A.** ~ 40%

**Q.** What about the “degradation of P-tau S396” value ([2]; control line 2, 10 μM) of the same compound?
**A.** no significant effect

**Q.** What about the “degradation of P-tau S396” value ([2]; control line 3, 10 μM) of the same compound?
**A.** no significant effect

**Q.** What about the “lowest concentration with effective degradation of P-tau S396 and high-molecular-weight P-tau S396” value ([3]; 24 hr) of the same compound?
**A.** 100 nM

**Q.** And the “Dmax, 24h for P-tau S396” value ([3]; 24 hr, averaged across independent replicates (Figure 2—figure supplement 1))?
**A.** 85%

**Q.** What about the “S396 P-Tau (relative to vehicle)” value ([3]; QC-01-175 0.001 μM) of the same compound?
**A.** 0.90 and 1.03 and 1.29 and 1.23 and 0.94 and 0.98

**Q.** What about the “S396 P-Tau (relative to vehicle)” value ([3]; QC-01-175 0.01 μM) of the same compound?
**A.** 0.75 and 0.86 and 1.08 and 1.03 and 0.78 and 0.81 and 0.97 and 0.82

**Q.** And the “S396 P-Tau (relative to vehicle)” value ([3]; QC-01-175 0.05 μM)?
**A.** 0.69 and 0.79 and 0.99 and 0.94 and 0.72 and 0.75

**Q.** What about the “S396 P-Tau (relative to vehicle)” value ([3]; QC-01-175 0.1 μM) of the same compound?
**A.** 0.16 and 0.19 and 0.24 and 0.22 and 0.17 and 0.20 and 0.18

**Q.** And the “S396 P-Tau (relative to vehicle)” value ([3]; QC-01-175 0.5 μM)?
**A.** 0.38 and 0.44 and 0.55 and 0.53 and 0.40 and 0.42

**Q.** What about the “S396 P-Tau (relative to vehicle)” value ([3]; QC-01-175 1 μM) of the same compound?
**A.** 0.52 and 0.59 and 0.75 and 0.71 and 0.54 and 0.55 and 0.56

**Q.** What about the “S396 P-Tau (relative to vehicle)” value ([3]; QC-01-175 10 μM) of the same compound?
**A.** 0.55 and 0.63 and 0.79 and 0.75 and 0.57 and 0.93 and 0.80 and 0.59
